In the CheMixHub viscosity set:

Assay: xn = mol fraction of the nth substance listed

O=C([O-])CC(O)(CC(=O)O)C(=O)O.[K+] + O
viscosity [mPa·s], 101 kPa
Details | 293.15 K | 298.15 K | 303.15 K | 308.15 K
x1 = 0.0032 | 1.074 | 0.954 | 0.853 | 0.766
x1 = 0.0089 | 1.237 | 1.089 | 0.97 | 0.876
x1 = 0.0177 | 1.419 | 1.253 | 1.117 | 1.002

Cc1c[nH]c(=O)[nH]c1=O + O
viscosity [mPa·s], 101.3 kPa
Details | 293.15 K | 298.15 K | 303.15 K | 308.15 K | 313.15 K | 318.15 K
x1 = 0.000119 | 1.006 | 0.895 | 0.803 | 0.738 | 0.623 | 0.595
x1 = 0.000164 | – | 0.893 | – | 0.722 | – | 0.598
x1 = 0.0001877 | 1.008 | 0.897 | 0.805 | 0.74 | 0.625 | 0.597
x1 = 0.000266 | – | 0.895 | – | 0.723 | – | 0.6
x1 = 0.0003006 | 1.01 | 0.899 | 0.807 | 0.742 | 0.627 | 0.599
x1 = 0.0003339 | – | 0.896 | – | 0.724 | – | 0.6
x1 = 0.0003713 | – | 0.896 | – | 0.724 | – | 0.601
x1 = 0.0003733 | 1.012 | 0.901 | 0.809 | 0.744 | 0.629 | 0.601
x1 = 0.0004194 | – | 0.897 | – | 0.725 | – | 0.601
x1 = 0.0004572 | 1.014 | 0.903 | 0.811 | 0.746 | 0.631 | 0.603
x1 = 0.0004811 | – | 0.898 | – | 0.726 | – | 0.602
x1 = 0.0005454 | 1.016 | 0.905 | 0.813 | 0.748 | 0.633 | 0.605

CCCCCCCCCCCC(=O)OC + CCCCCCCCCC(=O)OCC
viscosity [mPa·s], 100 kPa
Details | 298.15 K | 308.15 K | 318.15 K
x2 = 0.04836 | 2.784 | 2.203 | 1.856
x2 = 0.1051 | 2.725 | 2.165 | 1.824
x2 = 0.1954 | 2.649 | 2.106 | 1.778
x2 = 0.3128 | 2.556 | 2.041 | 1.723
x2 = 0.4082 | 2.482 | 1.988 | 1.677
x2 = 0.5008 | 2.417 | 1.945 | 1.639
x2 = 0.5987 | 2.348 | 1.897 | 1.601
x2 = 0.6571 | 2.307 | 1.87 | 1.582
x2 = 0.7044 | 2.274 | 1.849 | 1.567
x2 = 0.8 | 2.211 | 1.806 | 1.533
x2 = 0.8986 | 2.147 | 1.763 | 1.497

CCOC(C)=O + CCCCCCO
viscosity [mPa·s], 101.33 kPa
Details | x1 = 0.1142 | x1 = 0.2247 | x1 = 0.332 | x1 = 0.436 | x1 = 0.537 | x1 = 0.635 | x1 = 0.7301 | x1 = 0.8227 | x1 = 0.9125
298.15 K | 2.832 | 2.006 | 1.472 | 1.128 | 0.9 | 0.736 | 0.618 | 0.539 | 0.47
303.15 K | 2.481 | 1.775 | 1.334 | 1.027 | 0.824 | 0.692 | 0.574 | 0.506 | 0.448
308.15 K | 2.181 | 1.582 | 1.2 | 0.942 | 0.76 | 0.591 | 0.541 | 0.475 | 0.419

CC(C)(C)N1CCCC1=O + O
298.16 K, 101 kPa
Details | viscosity [mPa·s]
x1 = 0.1105 | 3.47
x1 = 0.261 | 4.04
x1 = 0.4035 | 4.76
x1 = 0.5487 | 5.49
x1 = 0.6233 | 5.79
x1 = 0.6749 | 5.86
x1 = 0.7189 | 5.81
x1 = 0.7798 | 5.44
x1 = 0.8652 | 4.22

COC(=O)CC(C)=O + COC(C)=O
viscosity [mPa·s], 101.33 kPa
Details | x1 = 0.0996 | x1 = 0.1998 | x1 = 0.3009 | x1 = 0.397 | x1 = 0.4973 | x1 = 0.5975 | x1 = 0.6969 | x1 = 0.7993 | x1 = 0.9006
298.15 K | 0.448 | 0.52 | 0.596 | 0.688 | 0.798 | 0.915 | 1.044 | 1.202 | 1.373
303.15 K | 0.424 | 0.489 | 0.564 | 0.643 | 0.744 | 0.843 | 0.963 | 1.104 | 1.257
308.15 K | 0.403 | 0.463 | 0.533 | 0.603 | 0.696 | 0.786 | 0.913 | 1.024 | 1.155
